One may read the pIC50 as −log10 of the IC50, conventionally taken in molar units.

Test [1] relates to human breast cancer (MDA-MB-231) cell line. The test is described as follows: anti-proliferative activity in CESCO bellows bottle perfusion model. Type of test: cell-based. Conditions: 144 h, MDA MB 231 cells in vitro, exposure for 6 days with daily refreshment, read-out: anti-proliferative (pro-apoptotic) IC50.
Method: FIGS. 8A and 8B depict the anti-proliferative activities of unmodified tetrac, unmodified resveratrol (RV) and the combination thereof against a human breast cancer (MDA-MB-231) cell line in vitro. The cell line is estrogen receptor (ER)-negative. The test system is a CESCO bellows bottle perfusion model in which cancer cells adhere to plastic flakes and are then exposed to continuous, recycled flow of chemotherapeutic agent in an oxygenated environment. Polyphenol (10 μM) or tetrac (0.1 μM) in DMEM buffer, supplemented with fetal bovine serum, are refreshed daily. […] Results shown are means of triplicate experiments.
MDA-MB cells were seeded in perfusion CESCO bellow bottles. Cells were refreshed with 1% FBS containing DMEM after 24 h incubation. Cells were then treated with tetrac (10^−7 M), or resveratrol (0.1 mM) or both. Resveratrol was added daily and tetrac was added every three days. Cells were harvested as indicated dates and counted.
The subject of test [2] is MDA-MB-231 cells. Kind of test: RNA microarray of differentially-regulated genes. Type of test: cell-based, human. Conditions: FIG. 9.

pIC50: −log10 of the molar value.

In the case of `Oc1ccc(C=Cc2cc(O)cc(O)c2)cc1` [resveratrol], the negative-log IC50 (pIC50) in test [1] is 7.00. In test [2] (10 μM, 24 h), the “expression of pro-apoptotic genes CASP2 and NLRP1 (NALP1)” value is on record as “upregulated”; the “expression of tumor markers FTCD (hepatoma) and leukemogenic FUS gene” value is “suppressed”. Moreover, in test [2], the “expression of cancer-relevant genes FUS, AAKJ, USP6 (Tre6)” value is listed as “downregulated”.

For the origin of these results see patent publication US20100159021A1, “Small Molecule Ligands of the Integrin RGD Recognition Site and Methods of Use” (priority 2008, published 2010).
